Values joined by “and” are separate entries in the source; they are usually repeats but may differ in a detail not shown here. Identical values can stand only once.
Tests used:
Salmonella sp. [1] = assay: Survival of Salmonella on sliced tomato packaged with volatile antimicrobials at about 4° C. (Example 2); format: cell-based; conditions: for effectiveness against Salmonella on slices: 10 days, origanum 150 μl, basil 75 μl, chlorine dioxide in absorbent or as spray, cyclodextrine forms high level, cinnamaldehyde 35 μl with spray
Description: The effect of volatile antimicrobials on the survival of Salmonella sp. in packaged sliced tomato was determined. The antimicrobials tested were origanum oil, basil oil, cyclodextrine cinnamaldehyde, chlorine dioxide as spray and in absorbent, and allyl isothiocyanate in cyclodextrine. The combinations of cinnamaldehyde with chlorine dioxide and allyl isothiocyanate in cyclodextrine with cinnamaldehyde were also tested.
(§1) Slices were inoculated with 5 Salmonella strains that included S. poona (cantaloupe associated outbreak), S. stanley H 1256 (Alfafa sprout associated outbreak), S. baildon (tomato associated outbreak), S. typhimurium DT 104 (multiple antibiotic resistant) and S. montevideo (tomato associated outbreak). […] Then, the specified volatile antimicrobials were pipetted into the wells of each package. The inoculated packages were stored at 4±1° C. for 10 days.
(§2) Inoculated and uninoculated tomato slices were analyzed at days 0 and 10. […] The diluted samples were plated on MacCkonkey agar plates. The plates were incubated at 37° C. for 18 hr and typical Salmonella colonies counted.

Salmonella spp. = assay: Survival of Salmonella spp. in packaged sliced tomato with volatile oils at about 11° C.; format: cell-based; conditions: for Salmonella on sliced tomatoes, Day 9: 9 days at about 11° C.
Description: The effect of origanum, basil, and cinnamaldehyde oils on the survival of Salmonella sp. in packaged sliced tomato was studied. Five Salmonella serotypes were used namely, S. poona (cantaloupe associated outbreak), S. stanley H 1256 (Alfa Alfa sprout associated outbreak), S. baildon (tomato associated outbreak), S. typhimurium DT 104 and S. montevideo (tomato associated outbreak). Five μl of the cocktail was inoculated on top of three tomato slices in package to have a target inoculum of 5×10^6 CFU/slice. Then, 12, 35, and 75 μl of each volatile antimicrobial agent were pipetted into the wells of the separate packages. The packages were stored at 11° C. for 9 days. After 8 days of incubation mold was observed on some slices in some packages.
The inoculated tomato slices were analyzed at day 0 and 9. Each slice was mixed with 90 ml 0.1% peptone water and stomached for 1 min. Next, 1 ml of the stomached material was diluted in 9 ml 0.1% peptone and spiral plated on MacCkonkey agar plates. The plates were incubated at 37° C. for 18 hr.
The data was analyzed by the General Linear Method using SAS 9.1. […] All results are for Day 9 except for the control. All day 0 counts were the same as the control. […] The other results include both the volatile antimicrobial agent and absorbent materials.

Salmonella [2] = assay: Salmonella in the absorbent in trays after 11 days (Example 2); format: cell-based; conditions: about 4° C.
Description: (§3) The absorbent in the trays was analyzed for aerobic plate count and salmonella levels at the conclusion of the study. The data was obtained on day 11.

Salmonella [3] = assay: Location of viable Salmonella on tomato slices after storage with antimicrobials; format: cell-based; conditions: about 4° C.; for viable Salmonella in Portion 1: Table 5
Description: as §1, §2
Tomato slices were inoculated with Salmonella between slices and placed in trays. […] The day 0 data (data is taken the day after inoculation) presented in Table 4 indicates no difference in the location of the inoculum between the Control 1 trays and the Control 2 tray at “0” time. After 10 days of storage, slices still had Salmonella distributed throughout; however, the distribution differed between Control 1 trays and Control 2 trays. The Salmonella in the Control 2 trays were located primarily at the top most portion of the slice (average of 72% of Salmonella on the top skin), whereas the Control 1 trays had high numbers at the bottom of the slice (average of 41% in bottom two portions). The total number of Salmonella increased on the slices to a similar extent for both tray types (Table 1).

aerobic microflora [4] = assay: Aerobic Plate Count of the absorbent in trays after 11 days (Example 2); format: cell-based; conditions: for growth inhibition (APC) in the absorbent over the control absorbent: about 4° C.
Description: as §3

yeast and mold = conditions: 4° C., up to 10 days
[5] = test system: pathogenic and aerobic microorganisms
aerobic microflora [6] = assay: Aerobic plate count in the absorbent/juice from trays after 10 days (Example 3); format: cell-based; conditions: about 4° C.
Description: (§4) Inoculated and uninoculated tomato slices were analyzed at 0, 5 and 10 days. […] The plates were incubated at 37° C. for 18 hr and typical Salmonella colonies counted. The absorbent (fluid in case of Control 1 trays) was analyzed for Salmonella and Aerobic Plate Count by plating appropriate dilution of the gel/fluid on MacConkey agar plates and Plate Count Agar.

Salmonella sp. [7] = assay: Survival of Salmonella on sliced tomatoes with low levels of antimicrobials at 4° C. (Example 3); format: cell-based; conditions: for Survival of Salmonella on sliced tomatoes, 5 days: about 4° C.
Description: The effect of low levels of specified antimicrobials on survival of Salmonella sp. in packaged sliced tomato under refrigeration (4±1° C.) was determined. The volatile antimicrobials tested were chlorine dioxide, allyl isothiocyanate cyclodextrine, origanum cyclodextrine, cinnamaldehyde cyclodextrine and basil cyclodextrine.
Slices were inoculated with 5 Salmonella strains that included S. poona (cantaloupe associated outbreak), S. stanley H 1256 (Alfafa sprout associated outbreak), S. baildon (tomato associated outbreak), S. typhimurium DT 104 (multiple antibiotic resistant) and S. montevideo (tomato associated outbreak). […] The inoculated packages were stored at 4±1° C. for 10 days.
as §4

Salmonella [8] = assay: Salmonella counts in the absorbent/juice from trays after 10 days (Example 3); format: cell-based; conditions: about 4° C.
Description: as §4

In the case of `O=CC=Cc1ccccc1` [Cinnamaldehyde, cinnamaldehyde], the “Survival of Salmonella on sliced tomatoes (Table 3)” value (“Survival of Salmonella … (Table 3)” below) (Salmonella sp. [1]; Day 10, 35 μl) was 4.78^fg Log CFU/Slice, the “Survival of Salmonella … (Table 3)” value (Salmonella sp. [1]; Day 10, 75 μl) was 4.67^fg Log CFU/Slice and the “Salmonella on sliced tomatoes, Day 9” value (Salmonella spp.; 12 μl per package) was 5.76 ± 0.34 Log CFU/Slice. The “Salmonella on sliced tomatoes, Day 9” value (Salmonella spp.; 35 μl per package) was 5.34 ± 0.02 Log CFU/Slice, the “Salmonella population” value (Salmonella spp.; 9 days, 11° C., origanum 35 or 75, basil 12, cinnamaldehyde 12 and 35 μl) was “declined significantly” and the “relative antimicrobial potency” value (Salmonella spp.; among origanum, basil and cinnamaldehyde oils) was “most potent antimicrobial”. The “Salmonella in the absorbent in trays (Table 9)” value (from here on “Salmonella … (Table 9)”) (Salmonella [2]; 35 μl) was 2.83 Log CFU/ml, the “Salmonella … (Table 9)” value (Salmonella [2]; 75 μl) was 2.04 Log CFU/ml and the “viable Salmonella in Portion 1” value (Salmonella [3]; Day 10, 75 μl) was 75 % of total survivors and 73 % of total survivors and 87 % of total survivors and 91 % of total survivors. For the same molecule, the “growth inhibition (APC) in the absorbent over the control absorbent” value (shortened to “growth inhibition … over the control absorbent”) (aerobic microflora [4]) was “little growth inhibition”.

With `C/C=C/C=C/C(=O)[O-].[K+]` [Potassium sorbate, potassium sorbate] the “yeast and mold growth in tomato juice in gel” value (yeast and mold) was “allows little growth”, the “bacteria in tomato juice in gel” value (total bacterial count; 4° C., up to 10 days) was “kills bacteria” and the “preservation of the gel / growth of yeast, mold and bacteria compared to the control” value (total bacterial count; 10 day period, 4° C. storage temperature) was “adequate to preserve the gel”. For the same molecule, the “effectiveness of higher vs lower levels” value [5] was “marginally more effective” and the “inhibition of growth of pathogenic and aerobic microorganisms in the gel/tomato juice mixture” value [5] was “effective at inhibiting growth”.

In the case of `O=C(O)CC(O)(CC(=O)O)C(=O)O` [Citric acid, citric acid], the “yeast and mold growth in tomato juice in gel” value (yeast and mold) was “little effect”.

`[O][Cl+][O-]` [Chlorine Dioxide, chlorine dioxide] was tested, and the “Aerobic Plate Count in the absorbent/juice” value (aerobic microflora [6]; 0.024 g per tray) was less than 2.3 Log CFU/g, the “Aerobic Plate Count in the absorbent/juice” value (aerobic microflora [6]; 0.052 g per tray) was 4.62 Log CFU/g and the “Aerobic Plate Count in the absorbent/juice” value (aerobic microflora [6]; 0.112 g per tray) was 5.1 Log CFU/g. For the same molecule, the “Aerobic Plate Count in the absorbent/juice” value (aerobic microflora [6]; 0.25 g per tray) was less than 2.3 Log CFU/g, the “Aerobic Plate Count in the absorbent/juice” value (aerobic microflora [6]; 0.4 g per tray) was less than 2.3 Log CFU/g and the “effectiveness against Salmonella on slices” value (Salmonella sp. [1]) was “most effective”. The “effectiveness against Salmonella on slices” value (Salmonella sp. [1]; listed as Chlorine dioxide spray) was “little effect”, the “Survival of Salmonella on sliced tomatoes (Table 2)” value (Salmonella sp. [1]; Day 0) was 4.88 Log CFU/Slice and the “Survival of Salmonella … (Table 3)” value (Salmonella sp. [1]; Day 0, spray 2.54 ml/tray) was 5.27^bcd Log CFU/Slice. For the same molecule, the “Survival of Salmonella on sliced tomatoes (Table 2)” value (Salmonella sp. [1]; Day 10, chlorine dioxide in absorbent, amount not given) was 4.32 Log CFU/Slice, the “Survival of Salmonella … (Table 3)” value (Salmonella sp. [1]; Day 10, spray 2.54 ml/tray) was 5.17^cde Log CFU/Slice and the “Salmonella in the absorbent in trays (Table 8)” value (Salmonella [2]; chlorine dioxide, amount not given) was 1.40 Log CFU/ml. The “Salmonella … (Table 9)” value (Salmonella [2]; spray) was 2.21 Log CFU/ml, the “Survival of Salmonella on sliced tomatoes, 5 days” value (from here on “Survival of Salmonella … 5 days”) (Salmonella sp. [7]; 0.024 g per tray) was 6.32 Log CFU/g and the “Survival of Salmonella … 5 days” value (Salmonella sp. [7]; 0.052 g per tray) was 5.61 Log CFU/g. The “Survival of Salmonella … 5 days” value (Salmonella sp. [7]; 0.112 g per tray) was 5.90 Log CFU/g, the “Survival of Salmonella … 5 days” value (Salmonella sp. [7]; 0.25 g per tray) was 5.65 Log CFU/g and the “Survival of Salmonella … 5 days” value (Salmonella sp. [7]; 0.4 g per tray) was 5.96 Log CFU/g. For the same molecule, the “Survival of Salmonella on sliced tomatoes, 10 days” value (from here on “Survival of Salmonella … 10 days”) (Salmonella sp. [7]; 10 days, 4° C., 0.024 g per tray) was 5.89 Log CFU/g, the “Survival of Salmonella … 10 days” value (Salmonella sp. [7]; 10 days, 4° C., 0.052 g per tray) was 5.65 Log CFU/g and the “Survival of Salmonella … 10 days” value (Salmonella sp. [7]; 10 days, 4° C., 0.112 g per tray) was 5.42 Log CFU/g. For the same molecule, the “Survival of Salmonella … 10 days” value (Salmonella sp. [7]; 10 days, 4° C., 0.25 g per tray) was 5.32 Log CFU/g, the “Survival of Salmonella … 10 days” value (Salmonella sp. [7]; 10 days, 4° C., 0.4 g per tray) was 5.15 Log CFU/g and the “effect on Salmonella on tomato slices” value (Salmonella sp. [7]; 10 days, 4° C., added to absorbent) was “significantly reduced levels”. For the same molecule, the “viable Salmonella in Portion 1 (top portion of skin)” value (Salmonella [3]; Table 4, Day 10, chlorine dioxide, amount not given) was 70 % of total survivors and 69 % of total survivors and 81 % of total survivors, the “viable Salmonella in Portion 1” value (Salmonella [3]; Day 0, spray, listed as Chlorine Dioxide Spray) was 56 % of total survivors and 55 % of total survivors and 79 % of total survivors and the “Aerobic Plate Count of the absorbent in trays (Table 6)” value (aerobic microflora [4]; 4° C., chlorine dioxide, amount not given) was 4.63 Log CFU/ml. The “growth inhibition … over the control absorbent” value (aerobic microflora [4]) was “did not produce much additional growth inhibition”, the “growth inhibition … over the control absorbent” value (aerobic microflora [4]; listed as chlorine dioxide spray) was “increased growth inhibition” and the “Salmonella in the absorbent/juice” value (Salmonella [8]; 0.024 g per tray) was 3.26 Log CFU/g. For the same molecule, the “Salmonella in the absorbent/juice” value (Salmonella [8]; 0.052 g per tray) was 4.39 Log CFU/g, the “Salmonella in the absorbent/juice” value (Salmonella [8]; 0.112 g per tray) was 4.43 Log CFU/g and the “Salmonella in the absorbent/juice” value (Salmonella [8]; 0.4 g per tray) was 3.77 Log CFU/g. For the same molecule, the “killing of Salmonella that dripped into the absorbent” value (Salmonella [8]; AITC at 36) was “reduced the pathogen numbers”.
